# Patent US20230250088A1, “COMPOUNDS AND COMPOSITIONS FOR TREATING CONDITIONS ASSOCIATED WITH STING ACTIVITY” (IFM Due, Inc., priority 2020, published 2023)
# Values joined by “and” are separate entries in the source; they are usually repeats but may differ in a detail not shown here. Equal entries are not always repeated.
# Biological target: T1, hSTING (Homo sapiens, UniProt Q86WV6, G230A/H232R/R293Q/R71H)
# T1 construct: host or cells: THP1-Dual KO-IFNAR2 cells
# Test: STING reporter assay (luciferase) in THP1-Dual KO-IFNAR2 cells activated with 2′3′cGAMP
# Format: cell-based
# Conditions: THP1-Dual KO-IFNAR2 cells; 2′3′cGAMP 15 μM final, Lipofectamine 2000; 24 h; luciferase reporter activity; read-out: hSTING EC50
# Protocol: STING pathway activation by the compounds described herein was measured using THP1-Dual™ cells (KO-IFNAR2).
# THP1-Dual™ KO-IFNAR2 Cells (obtained from invivogen) were maintained in RPMI, 10% FCS, 5 ml P/S, 2 mM L-glut, 10 mM Hepes, and 1 mM sodium pyruvate. Compounds were spotted in empty 384 well tissue culture plates (Greiner 781182) by Echo for a final concentration of 0.0017-100 μM. Cells were plated into the TC plates at 40 μL per well, 2×10E6 cells/mL. For activation with STING ligand, 2′3′cGAMP (MW 718.38, obtained from Invivogen), was prepared in Optimem media.
# The following solutions were prepared for each 1×384 plate: • Solution A: 2 mL Optimem with one of the following stimuli: • 60 μL of 10 mM 2′3′cGAMP→150 μM stock • Solution B: 2 mL Optimem with 60 μL Lipofectamine 2000→Incubate 5 min at RT
# 2 mL of solution A and 2 ml Solution B was mixed and incubated for 20 min at room temperature (RT). 20 μL of transfection solution (A+B) was added on top of the plated cells, with a final 2′3′cGAMP concentration of 15 μM. The plates were then centrifuged immediately at 340 g for 1 minute, after which they were incubated at 37° C., 5% CO2, >98% humidity for 24h. Luciferase reporter activity was then measured. EC50 values were calculated by using standard methods known in the art.
# Luciferase reporter assay: 10 μL of supernatant from the assay was transferred to white 384-plate with flat bottom and squared wells. One pouch of QUANTI-Luc™ Plus was dissolved in 25 mL of water. 100 μL of QLC Stabilizer per 25 mL of QUANTI-Luc™ Plus solution was added. 50 μL of QUANTI-Luc™ Plus/QLC solution per well was then added. Luminescence was measured on a Platereader (e.g., Spectramax I3X (Molecular Devices GF3637001)).
# Luciferase reporter activity was then measured. EC50 values were calculated by using standard methods known in the art.
# T1 sequence (Q86WV6 whole entry R71H/G230A/H232R/R293Q): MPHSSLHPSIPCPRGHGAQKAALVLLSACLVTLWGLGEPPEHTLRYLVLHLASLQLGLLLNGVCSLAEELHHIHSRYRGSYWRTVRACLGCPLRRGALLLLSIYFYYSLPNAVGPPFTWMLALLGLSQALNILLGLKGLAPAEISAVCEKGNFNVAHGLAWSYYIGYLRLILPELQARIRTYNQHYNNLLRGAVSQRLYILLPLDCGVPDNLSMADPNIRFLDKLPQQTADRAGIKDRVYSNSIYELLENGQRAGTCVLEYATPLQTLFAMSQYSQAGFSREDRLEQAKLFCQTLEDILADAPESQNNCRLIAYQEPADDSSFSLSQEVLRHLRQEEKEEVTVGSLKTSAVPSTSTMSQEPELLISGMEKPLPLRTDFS
row,Structure (SMILES),EC50
1,O=C(Nc1c[nH]c2cc(F)c(F)cc12)c1c2ccccc2nn1Cc1ccc(C(F)(F)F)cc1 [Compound 101],1 to 5 µM
2,O=C(Nc1c[nH]c2cc(F)c(F)cc12)c1c2ccccc2nn1CCC(F)(F)F [Compound 102],5 to 100 µM
3,Cc1ccc2c(C(=O)Nc3c[nH]c4cc(F)c(F)cc34)cnn2c1 [Compound 104],0.2 to 1 µM
4,O=C(Nc1c[nH]c2cc(F)c(F)cc12)c1cnc2cc(C(F)(F)F)ccn12 [Compound 105],1 to 5 µM
5,"CC(C)(C)OC(=O)N1CCc2c(C(=O)Nc3c[nH]c4cc(F)c(F)cc34)csc2C1 [Compound 109, tert-butyl 3-((5,6-difluoro-1H-indol-3-yl)carbamoyl)-4.5-dihydrothieno[2,3-c]pyridine-6(7H)-carboxylate]",0.2 to 1 µM
6,"CC(C)(C)OC(=O)N1Cc2n[nH]c(C(=O)Nc3c[nH]c4cc(F)c(F)cc34)c2C1 [Compound 110, tert-butyl 3-((5,6-difluoro-1H-indol-3-yl)carbamoyl)-4,6-dihydropyrrolo[3,4-c]pyrazole-5(1H)-carboxylate]",1 to 5 µM
7,"CC(C)(C)OC(=O)N1CCn2nc(C(=O)Nc3c[nH]c4cc(F)c(F)cc34)cc2C1 [Compound 111, tert-butyl 2-[(5,6-difluoro-1H-indol-3-yl)carbamoyl]-4H,5H,6H,7H-pyrazolo[1,5-a]pyrazine-5-carboxylate]",1 to 5 µM
8,"O=C(Nc1c[nH]c2cc(F)c(F)cc12)c1cc2cccnc2s1 [Compound 112, N-(5,6-difluoro-1H-indol-3-yl)thieno[2,3-b]pyridine-2-carboxamide]",1 to 5 µM
9,"O=C(Nc1c[nH]c2cc(F)c(F)cc12)c1cn2cc(C(F)(F)F)ccc2n1 [Compound 113, N-(5,6-difluoro-1H-indol-3-yl)-6-(trifluoromethyl)imidazo[1,2-a]pyridine-2-carboxamide]",1 to 5 µM
10,"CC(C)(C)OC(=O)N1CCCn2nc(C(=O)Nc3c[nH]c4cc(F)c(F)cc34)cc2C1 [Compound 114, tert-butyl 2-[(5,6-difluoro-1H-indol-3-yl)carbamoyl]-4H,5H,6H,7H,8H-pyrazolo[1,5-a][1,4]diazepine-5-carboxylate]",5 to 100 µM
11,"O=C(Nc1c[nH]c2cc(F)c(F)cc12)C1Cc2[nH]nc(C(F)(F)F)c2C1 (stereo not shown) [Compound 115, N-(5,6-difluoro-1H-indol-3-yl)-3-(trifluoromethyl)-1H,4H,5H,6H-cyclopenta[c]pyrazole-5-carboxamide]",5 to 100 µM
12,"O=C(Nc1c[nH]c2cc(F)c(F)cc12)c1cc2ccc(Cl)cn2n1 [Compound 116, 6-chloro-N-(5,6-difluoro-1H-indol-3-yl)pyrazolo[1,5-a]pyridine-2-carboxamide]",0.2 to 1 µM
13,"CC(C)(C)OC(=O)N1CCc2c(C(=O)Nc3c[nH]c4cc(F)c(F)cc34)ncn2CC1 [Compound 117, tert-butyl 1-[(5,6-difluoro-1H-indol-3-yl)carbamoyl]-5H,6H,7H,8H,9H-imidazo[1,5-d][1,4]diazepine-7-carboxylate]",5 to 100 µM
14,O=C(Nc1c[nH]c2cc(F)c(F)cc12)c1n[nH]c2cc(OC(F)(F)F)ccc12 [Compound 118],0.2 to 1 µM
15,"O=C(Nc1c[nH]c2cc(F)c(F)cc12)c1cn2c(n1)CCC(C(F)(F)F)C2 (stereo not shown) [Compound 120, N-(5,6-difluoro-1H-indol-3-yl)-6-(trifluoromethyl)-5,6,7,8-tetrahydroimidazo[1,2-a]pyridine-2-carboxamide]",5 to 100 µM
16,O=C(Nc1c[nH]c2cc(F)c(F)cc12)c1cccc2nn(Cc3ccc(C(F)(F)F)cc3)cc12 [Compound 121],0.2 to 1 µM
17,O=C(Nc1c[nH]c2cc(F)c(F)cc12)c1cccc2c1cnn2Cc1ccc(C(F)(F)F)cc1 [Compound 122],0.2 to 1 µM
18,CCC1Cc2ccc(C(=O)Nc3c[nH]c4cc(F)c(F)cc34)cc2C1 (stereo not shown) [Compound 123],0.2 to 1 µM
19,"O=C(Nc1c[nH]c2cc(F)c(F)cc12)c1ccc2c(c1)OCCCO2 [Compound 124, N-(5,6-difluoro-1H-indol-3-yl)-3,4-dihydro-2H-benzo[b][1,4]dioxepine-7-carboxamide]",0.2 to 1 µM
20,O=C(Nc1c[nH]c2cc(F)c(F)cc12)c1n[nH]c2cc(OCC(F)(F)F)ccc12 [Compound 125],0.04 to 0.2 µM
21,O=C(Nc1c[nH]c2cc(F)c(F)cc12)c1n[nH]c2cc(NCC(F)(F)F)ccc12 [Compound 126],0.04 to 0.2 µM and 0.2 to 1 µM

row,Structure (SMILES),EC50
1,O=C(Nc1c[nH]c2cc(F)c(F)cc12)c1n[nH]c2cc(OCC(F)(F)F)ncc12 [Compound 128],0.2 to 1 µM
2,O=C(Nc1c[nH]c2cc(F)c(F)cc12)c1n[nH]c2nc(OCC(F)(F)F)ccc12 [Compound 129],0.2 to 1 µM
3,Cc1nc(C(=O)Nc2c[nH]c3cc(F)c(F)cc23)c2ccc(C(F)(F)F)cn12 [Compound 134],5 to 100 µM
4,O=C(Nc1c[nH]c2cc(F)c(F)cc12)c1cccc2nn(CCC(F)(F)F)cc12 [Compound 137],0.2 to 1 µM
5,O=C(Nc1c[nH]c2cc(F)c(F)cc12)c1cccc2c1cnn2CCC(F)(F)F [Compound 138],1 to 5 µM
6,"O=C(Nc1c[nH]c2ccc(Cl)cc12)c1n[nH]c2c1CN(Cc1ccc(C(F)(F)F)cc1)C2 [Compound 142, N-(5-chloro-1H-indol-3-yl)-5-(4-(trifluoromethyl)benzyl)-1,4,5,6-tetrahydropyrrolo[3,4-c]pyrazole-3-carboxamide]",0.2 to 1 µM
7,"O=C(Nc1c[nH]c2ccc(Cl)cc12)c1n[nH]c2cc(N3CCC(F)(F)CC3)ncc12 [Compound 143, N-(5-chloro-1H-indol-3-yl)-6-(4,4-difluoropiperidin-1-yl)-1H-pyrazolo[4,3-c]pyridine-3-carboxamide]",5 to 100 µM
8,O=C(Nc1c[nH]c2ccc(Cl)cc12)c1n[nH]c2cc(N3CCN(CC(F)(F)F)CC3)ccc12 [Compound 144],0.04 to 0.2 µM
9,O=C(Nc1c[nH]c2ccc(Cl)cc12)c1n[nH]c2cc(N3CCC(F)(F)CC3)ccc12 [Compound 146],0.04 to 0.2 µM
10,O=C(Nc1c[nH]c2ccc(Cl)cc12)c1noc2cc(N3CCC(F)(F)CC3)ccc12 [Compound 147],0.04 to 0.2 µM
11,"O=C(Nc1c[nH]c2ccccc12)c1n[nH]c2cc(OCC(F)(F)F)ccc12 [Compound 148, N-(1H-indol-3-yl)-6-(2,2,2-trifluoroethoxy)-1H-indazole-3-carboxamide]",0.04 to 0.2 µM
12,O=C(Nc1c[nH]c2ccc(Cl)cc12)c1n[nH]c2cc(OCC(F)(F)F)ccc12 [Compound 149],0.04 to 0.2 µM
13,O=C(Nc1c[nH]c2cc(F)c(F)cc12)c1cnc2cc(OCC(F)(F)F)ccn12 [Compound 150],0.04 to 0.2 µM
14,O=C(Nc1c[nH]c2cc(F)c(F)cc12)c1n[nH]c2c1CN(CC(F)(F)F)C2 [Compound 151],5 to 100 µM
15,O=C(Nc1c[nH]c2cc(F)c(F)cc12)c1n[nH]c2nc(N3CCC(F)(F)CC3)c(Cl)cc12 [Compound 152],0.2 to 1 µM
16,O=C(Nc1c[nH]c2cc(F)c(F)cc12)c1n[nH]c2nc(N3CCC(F)(F)CC3)ccc12 [Compound 154],0.2 to 1 µM
17,O=C(Nc1c[nH]c2cc(F)c(F)cc12)c1n[nH]c2cc(N3CCC(F)(F)CC3)ccc12 [Compound 155],0.04 to 0.2 µM
18,CC1(C)CCc2c(C(=O)Nc3c[nH]c4cc(F)c(F)cc34)n[nH]c2C1 [Compound 156],1 to 5 µM
19,Cn1nc2cc(C(F)(F)F)ccc2c1C(=O)Nc1c[nH]c2cc(F)c(F)cc12 [Compound 157],5 to 100 µM
20,Cn1nc(C(=O)Nc2c[nH]c3cc(F)c(F)cc23)c2ccc(C(F)(F)F)cc21 [Compound 158],0.2 to 1 µM

# Same assay, conditions: hSTING EC50, THP1-Dual KO-IFNAR2 cells; 2′3′cGAMP 15 μM final, Lipofectamine 2000; 24 h; luciferase reporter activity
row,Structure (SMILES),EC50
1,O=C(Nc1c[nH]c2cc(F)c(F)cc12)c1nn(CCC(F)(F)F)c2ccccc12 [Compound 103],0.2 to 1 µM
2,"O=C(Nc1c[nH]c2cc(F)c(F)cc12)c1nn(Cc2ccc(C(F)(F)F)cc2)c2ccccc12 [Compound 106, N-(5,6-difluoro-1H-indol-3-yl)-1-[[4-(trifluoromethyl)phenyl]methyl]indazole-3-carboxamide]",0.2 to 1 µM
